Assay results published in patent US20060062863A1, “Compositions for anti-obesity, health-restorative and health-promotional benefits” (priority 2004, published 2006).

Test: Food intake and body weight in haloperidol-treated albino rats
Format: in vivo
Details: for % change in body weight: day-21 vs initial value; for % change in food intake: during the 21-day period vs initial value
Text: The results of administration of the Type-I saponins or the total extractives (comprising Type-I to -III compounds) of Chlorophytum arundinaceum on the attendant changes in the food intake and body weight of albino rats (270±20 grams) are given in Table-1. Administration of haloperidol causes obesity as it appreciably increases food intake and induces rapid weight gain. The feeder contained at least three times more pellets than are normally consumed. Food intake and the body weight were assessed for one week in all rats prior to initiation of administration of the test compound(s). Both Type-I saponins and the total extractives annulled the gluttonous craving for food due to haloperidol with appreciable decrease in weight gain, compared to the haloperidol group. […] Sibutramine is used as a recognized anorexic drug.

[1] = haloperidol 20 mg/Kg i.p. once daily for 21 days, alone
[2] = 10 mg/Kg p.o. once daily for 21 days + haloperidol 20 mg/Kg i.p.

SMILES	% change in body weight [1]	% change in food intake [1]	% change in body weight [2]	% change in food intake [2]
O=C(CCCN1CCC(O)(c2ccc(Cl)cc2)CC1)c1ccc(F)cc1 [Haloperidol]	+35.13%	+45.32%		
CC(C)CC(N(C)C)C1(c2ccc(Cl)cc2)CCC1 (stereo not shown) [Sibutramine]			+0.28%	−0.37%
